Source: ChEMBL document CHEMBL1157405, “ent-Kaurane diterpenoids from Isodon japonicus” (J Nat Prod, 2008)

System: RAW264.7
Assay: Inhibition of LPS-induced nitric oxide production in mouse RAW264.7 cells assessed as nitrite formation
Type: functional, cell-based

Structure (SMILES)	IC50 [µM]
C=C1C(=O)[C@]23C[C@H]1CC[C@H]2[C@@]12CO[C@@]3(O)[C@@H](O)[C@@H]1[C@](C)(COC(C)=O)CC[C@@H]2O	5.9
C=C1C(=O)[C@]23[C@@H](O)[C@H]1CC[C@H]2[C@@]12COC3(O)C[C@@H]1C(C)(C)CC[C@@H]2O	8.5
C=C1C(=O)[C@]23C[C@H]1CC[C@H]2[C@]1(COC3=O)[C@@H](OC(C)=O)CC[C@@](C)(COC(C)=O)[C@H]1CO	8.2
C=C1C(=O)[C@]23C[C@H]1C[C@@H](OC(C)=O)[C@H]2[C@@]12CO[C@@]3(O)[C@@H](O)[C@@H]1[C@](C)(COC(C)=O)CC[C@@H]2O	10.2
C=C1C(=O)[C@]23C[C@H]1CC[C@H]2[C@]12CCC[C@@](C)(COC(C)=O)[C@H]1[C@H](O)[C@]3(O)OC2 [LONGIKAURIN C]	1
C=C1C(=O)[C@@]23[C@H](O)C[C@@H]4C(C)(C)CC[C@H](O)[C@@]4(C)[C@@H]2C[C@H](OC(C)=O)[C@@H]1[C@H]3O [EXCISANIN B]	3.3
C=C1C(=O)[C@]23C[C@H]1C[C@@H](O)[C@H]2[C@]12CCC[C@@](C)(COC(C)=O)[C@H]1[C@H](O)[C@]3(O)OC2 [LONGIKAURIN D]	2
C=C1C(=O)[C@@]23[C@H](O)C[C@@H]4C(C)(C)[C@@H](OC(C)=O)CC[C@@]4(C)[C@@H]2CC(=O)[C@@H]1[C@H]3O [PSEURATA C]	5.4
C=C1C(=O)[C@]23C[C@H]1CC[C@H]2[C@@]12CO[C@]3(O)[C@@H](O)[C@@H]1[C@](C)(COC(C)=O)CC[C@@H]2OC(C)=O [EFFUSANIN D]	3.3
C=C1C(=O)[C@]23C[C@H]1CC[C@H]2[C@]1(COC3=O)[C@@H](OC(C)=O)CC[C@@](C)(COC(C)=O)[C@H]1C=O	20.3
C=C1C(=O)[C@]23[C@H](O)[C@H]1CC[C@H]2[C@@]12CO[C@@]3(O)[C@@H](O)[C@@H]1C(C)(C)CC[C@@H]2OC(C)=O [LASIOKAURIN]	1.6
C=C1C(=O)[C@]23C[C@H]1C[C@@H](O)[C@H]2[C@]1(COC3=O)[C@@H](OC(C)=O)CC[C@@](C)(COC(C)=O)[C@H]1C=O [LOXOTHYRIN A]	24.2
C=C1C(=O)[C@]23[C@H](O)[C@H]1CC[C@H]2[C@]12CCC[C@@](C)(COC(C)=O)[C@H]1[C@H](O)[C@]3(O)OC2 [LONGIKAURIN B]	0.9
C=C1C(=O)[C@]23C[C@H]1CC[C@H]2[C@]1(COC3=O)[C@@H](OC(C)=O)CC[C@@](C)(CO)[C@H]1COC(C)=O	8.7
C=C1C(=O)[C@]23[C@H](O)[C@H]1CC[C@H]2[C@@]12CO[C@@]3(O)[C@@H](O)[C@@H]1[C@](C)(COC(C)=O)CC[C@@H]2OC(C)=O [ISODOJAPONIN A]	6.3
